Values joined by “and” are separate entries in the source; they are usually repeats but may differ in a detail not shown here. Equal entries are not always repeated. “Also recorded” adds a separate entry of the source. Where two headings read alike, the source gives them in different places.
Columns and labels:
E. coli imp [1] = system: E. coli imp
Procedure: (§2) Antibacterial minimum inhibitory concentrations (MICs) were obtained from three independent experiments using broth microdilution methods in 96-well plates according to Clinical and Laboratory Standards Institute guidelines. Cells were culture from singles colonies in MHIIB medium for 24 h at 37° C. in agitation (200 RPM). The cultures were then diluted using the same media to reach an OD600 of 0.1. Then, 50 µL of the diluted cultures were added to the plates holding 50 µL of serially diluted compounds in MHIIB. The plates were incubated at 37° C. for 20 h. The starting inoculum was fixated to 10^5 colony-forming units per ml.

B. subtilis (ATCC 6633) = experiment: Minimum inhibitory concentration, broth microdilution
S. aureus (ATCC 14775) = experiment: as above; details: for MIC: Staphylococcus aureus
Procedure: as §2

MRSA = experiment: as above; details: for MIC: Staphylococcus aureus
E. coli (ATCC 25922) = experiment: as above; details: for MIC: Escherichia coli
Procedure: as §2

M. abscessus = experiment: MIC against M. abscessus; assay type: cell-based, Mycobacterium abscessus; details: Mycobacteroides abscessus
E. coli DNA gyrase [2] = target: T1, E. coli DNA gyrase (Escherichia coli (strain K12), UniProt P0AES4+P0AES6); experiment: DNA gyrase mediated DNA cleavage assay; assay type: biochemical; details: pBR322
Procedure: 250 ng of supercoiled pBR322 plasmid were incubated with 50 nM of E. coli DNA gyrase in reactions containing 35 mM Tris-HCl, 24 mM KCl, 4 mM MgCl2, 2 mM DTT, 0.1 mg/mL BSA, 6.5% glycerol, and 1.75 mM ATP, in presence of 200 µM of compounds, at 37° C. for 15 min. Then, 0.2% (w/v) of SDS and 0.1 mg/mL proteinase K were added, and samples were incubated at 37° C. for 1 h. […] Samples were examined by electrophoresis in 1% w/v agarose gel containing 0.5 µg/mL ethidium bromide and photographed under UV light.

in vitro [3] = details: mouse
E. coli DNA gyrase [4] = target: T1, E. coli DNA gyrase; experiment: Agarose gel-based DNA gyrase inhibition assay; assay type: biochemical; details: for IC50: gel-based, read-out: IC50 against E. coli DNA gyrase
Procedure: 100 ng of DNA gyrase was used to supercoil the rx pAB1 in the presence of different concentrations of a gyrase inhibitor. […] Samples were analyzed by electrophoresis in 1% w/v agarose gels followed by ethidium bromide staining and photographed under UV light.

Mtb gyrase = Mtb gyrase (Mycobacterium tuberculosis (strain ATCC 25618 / H37Rv), UniProt P9WG45+P9WG47); experiment: Mtb gyrase mediated DNA cleavage assay; assay type: biochemical; details: pBR322, 50-100 µM
Procedure: The IC50 against E. coli (A) and Mtb (C) gyrase were determined using the gel-based gyrase inhibition assays. The gyrase mediated DNA cleavage assays (B and D) were performed using pBR322. (A) 229 inhibits E. coli gyrase. Lane 1, rx pAB1. […] Lane 1, rx pAB1. […] 100 µM of CPDs were used. Symbols rx, nk, In, and sc represent relaxed, nicked, linear, and supercoiled DNA, respectively.

CDF1 mice = details: 800 mg/kg, 5 days, results of NCI DTP; cited from earlier work
Mtb = Mtb whole cell assay (% inhibition, MIC); assay type: cell-based, Mycobacterium tuberculosis; details: Mycobacterium tuberculosis
in vitro [5] = details: human
Mtb DNA gyrase = Mtb DNA gyrase (Mycobacterium tuberculosis (strain ATCC 25618 / H37Rv), UniProt P9WG45+P9WG47); experiment: Mtb DNA gyrase inhibition assay (gel-based); assay type: biochemical
In short: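 Supercoiling by 100 ng Mtb gyrase of 400 ng relaxed pAB1 in buffer with 1.75 mM ATP, pH 7.5, across inhibitor concentrations. Reactions ran 15 min at 37° C, stopped with SDS/EDTA. Products resolved on 1% agarose, ethidium bromide-stained; IC50 determined from gels.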

E. coli DNA gyrase [6] = target: T1, E. coli DNA gyrase; experiment: biochemical; assay type: biochemical
[7] = system: NCI panel of 60 cancer cell lines; details: up to 1 mM; results of NCI DTP; cited from earlier work
[8] = target: T2, E. coli DNA topoisomerase IV (Escherichia coli (strain K12), UniProt P0AFI2+P20083); experiment: SDFQ-based DNA relaxation assay with E. coli DNA topoisomerase IV; assay type: biochemical
T2 sequence (P0AFI2 whole entry, looked up): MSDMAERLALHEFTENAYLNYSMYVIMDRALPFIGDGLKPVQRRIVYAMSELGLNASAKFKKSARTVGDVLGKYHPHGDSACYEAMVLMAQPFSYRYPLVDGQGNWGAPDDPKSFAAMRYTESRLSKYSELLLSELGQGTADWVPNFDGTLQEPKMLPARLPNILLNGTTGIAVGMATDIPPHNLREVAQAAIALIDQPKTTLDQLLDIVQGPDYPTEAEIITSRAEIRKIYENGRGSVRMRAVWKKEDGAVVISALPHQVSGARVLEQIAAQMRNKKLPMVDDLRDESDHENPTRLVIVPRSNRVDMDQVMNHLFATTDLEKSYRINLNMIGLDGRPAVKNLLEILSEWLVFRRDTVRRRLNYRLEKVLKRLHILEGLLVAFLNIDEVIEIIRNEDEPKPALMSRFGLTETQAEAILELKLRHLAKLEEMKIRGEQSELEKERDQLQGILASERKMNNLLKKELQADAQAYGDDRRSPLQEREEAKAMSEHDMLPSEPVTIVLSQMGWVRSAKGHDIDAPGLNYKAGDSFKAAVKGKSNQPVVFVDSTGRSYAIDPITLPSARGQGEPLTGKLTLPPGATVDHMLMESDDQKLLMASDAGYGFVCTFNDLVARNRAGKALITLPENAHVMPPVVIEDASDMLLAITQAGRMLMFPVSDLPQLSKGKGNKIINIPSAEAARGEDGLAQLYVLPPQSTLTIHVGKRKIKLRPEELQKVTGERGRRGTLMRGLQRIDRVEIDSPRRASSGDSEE
T2 sequence (P20083 whole entry, looked up): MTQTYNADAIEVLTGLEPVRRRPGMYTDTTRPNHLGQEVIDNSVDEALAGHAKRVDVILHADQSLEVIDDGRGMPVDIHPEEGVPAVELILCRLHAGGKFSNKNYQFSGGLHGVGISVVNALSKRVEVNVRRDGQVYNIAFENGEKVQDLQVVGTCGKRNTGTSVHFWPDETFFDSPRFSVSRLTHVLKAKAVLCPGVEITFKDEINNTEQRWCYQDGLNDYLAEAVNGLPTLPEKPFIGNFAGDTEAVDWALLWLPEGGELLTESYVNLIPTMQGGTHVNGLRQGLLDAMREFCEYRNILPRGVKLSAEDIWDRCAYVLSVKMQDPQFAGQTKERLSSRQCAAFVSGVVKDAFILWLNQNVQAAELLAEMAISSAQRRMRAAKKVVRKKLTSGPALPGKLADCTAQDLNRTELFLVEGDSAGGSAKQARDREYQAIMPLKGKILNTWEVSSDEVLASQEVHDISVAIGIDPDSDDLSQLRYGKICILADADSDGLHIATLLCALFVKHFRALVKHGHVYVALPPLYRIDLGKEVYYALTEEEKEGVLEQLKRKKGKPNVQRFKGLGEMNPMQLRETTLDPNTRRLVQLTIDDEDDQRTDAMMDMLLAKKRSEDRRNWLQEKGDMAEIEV
Procedure: (§1) Relaxation assays by E. coli DNA topoisomerase IV and the ATPase assays were performed. […] Lane 1 is supercoiled plasmid pAB1. […] The supercoiled, fluorescently-labeled plasmid pAB1_FL905 was used.

[9] = target: T2, E. coli DNA topoisomerase IV; experiment: E. coli DNA topoisomerase IV relaxation assay (gel-based); assay type: biochemical
Procedure: as §1

[10] = target: T2, E. coli DNA topoisomerase IV; experiment: ATP hydrolysis activity of E. coli DNA topoisomerase IV; assay type: biochemical; details: 100 µM
Procedure: as §1

E. coli imp [11] = experiment: microbe, parasite or virus in culture; details: Escherichia coli, read-out: MIC E. coli imp BAS3023
Procedure: as §2

E. coli DNA gyrase [12] = target: T1, E. coli DNA gyrase; experiment: E. coli DNA gyrase ATPase assay; assay type: biochemical
In short: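 Coupled PK/LDH ATPase assay with 50 nM gyrase and 200 ng relaxed pAB1 in Tris pH 7.5 buffer with 1 mM MgCl2. Mixtures held on ice 5 min before starting with 2 mM ATP; NADH absorbance at 340 nm followed up to 30 min at 37 °C.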

E. coli DNA gyrase [13] = target: T1, E. coli DNA gyrase; experiment: SDFQ-based DNA gyrase inhibition assay; assay type: biochemical; details: Table 8; read-out: IC50 Gyrase SDFQ
Procedure: 100 ng of DNA gyrase was used to supercoil the rx pAB1_FL905 in the presence of different concentrations of a gyrase inhibitor. […] The IC50 values were estimated by nonlinear fitting of the following equation: […]
where F is the fluorescence intensity at the x concentration of an min inhibitor. Fmax and Fmin are the maximum and minimum fluorescence of the DNA sample, respectively. P is a slope parameter.

[14] = target: E. coli DNA topoisomerase I (Escherichia coli (strain K12), UniProt P06612); experiment: E. coli DNA topoisomerase I inhibition; assay type: biochemical; details: gallates at 100 µM
Sequence of E. coli DNA topoisomerase I (P06612 whole entry, looked up): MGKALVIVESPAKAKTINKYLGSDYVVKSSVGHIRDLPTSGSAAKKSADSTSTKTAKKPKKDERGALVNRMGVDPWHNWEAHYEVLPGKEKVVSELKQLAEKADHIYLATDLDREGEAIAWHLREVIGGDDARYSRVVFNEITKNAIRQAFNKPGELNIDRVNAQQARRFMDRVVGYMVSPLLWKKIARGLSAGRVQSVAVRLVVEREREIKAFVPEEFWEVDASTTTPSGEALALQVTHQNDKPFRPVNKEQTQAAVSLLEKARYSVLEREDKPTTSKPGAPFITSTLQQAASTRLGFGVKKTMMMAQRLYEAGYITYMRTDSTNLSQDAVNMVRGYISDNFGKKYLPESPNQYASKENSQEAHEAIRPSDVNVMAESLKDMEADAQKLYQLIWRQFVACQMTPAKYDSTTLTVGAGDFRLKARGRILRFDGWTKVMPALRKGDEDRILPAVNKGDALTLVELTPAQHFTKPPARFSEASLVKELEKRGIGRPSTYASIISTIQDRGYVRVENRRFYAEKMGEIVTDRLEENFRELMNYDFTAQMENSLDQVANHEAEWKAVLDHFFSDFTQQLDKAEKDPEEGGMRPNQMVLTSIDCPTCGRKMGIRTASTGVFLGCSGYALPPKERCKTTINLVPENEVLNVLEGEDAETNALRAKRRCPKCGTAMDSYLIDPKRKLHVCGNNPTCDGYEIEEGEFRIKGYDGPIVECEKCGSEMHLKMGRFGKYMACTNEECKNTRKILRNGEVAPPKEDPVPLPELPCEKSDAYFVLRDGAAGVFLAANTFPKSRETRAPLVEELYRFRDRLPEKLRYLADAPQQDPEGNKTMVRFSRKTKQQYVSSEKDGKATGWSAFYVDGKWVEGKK

E. coli topoisomerase IV = E. coli topoisomerase IV (Escherichia coli (strain K12), UniProt P0AFI2+P20083); experiment: E. coli topoisomerase IV decatenation; assay type: biochemical; details: read-out: IC50 against E. coli topoisomerase IV
Sequence of E. coli topoisomerase IV (P0AFI2 whole entry, looked up): as the sequence (P0AFI2 whole entry, looked up) above
Sequence of E. coli topoisomerase IV (P20083 whole entry, looked up): as the sequence (P20083 whole entry, looked up) above

[15] = target: human DNA topoisomerase IIα (Homo sapiens (Human), UniProt P11388); experiment: Agarose gel-based inhibition assay against human DNA topoisomerase IIα; assay type: biochemical; details: gallates at 100 µM
Sequence of human DNA topoisomerase IIα (P11388 whole entry): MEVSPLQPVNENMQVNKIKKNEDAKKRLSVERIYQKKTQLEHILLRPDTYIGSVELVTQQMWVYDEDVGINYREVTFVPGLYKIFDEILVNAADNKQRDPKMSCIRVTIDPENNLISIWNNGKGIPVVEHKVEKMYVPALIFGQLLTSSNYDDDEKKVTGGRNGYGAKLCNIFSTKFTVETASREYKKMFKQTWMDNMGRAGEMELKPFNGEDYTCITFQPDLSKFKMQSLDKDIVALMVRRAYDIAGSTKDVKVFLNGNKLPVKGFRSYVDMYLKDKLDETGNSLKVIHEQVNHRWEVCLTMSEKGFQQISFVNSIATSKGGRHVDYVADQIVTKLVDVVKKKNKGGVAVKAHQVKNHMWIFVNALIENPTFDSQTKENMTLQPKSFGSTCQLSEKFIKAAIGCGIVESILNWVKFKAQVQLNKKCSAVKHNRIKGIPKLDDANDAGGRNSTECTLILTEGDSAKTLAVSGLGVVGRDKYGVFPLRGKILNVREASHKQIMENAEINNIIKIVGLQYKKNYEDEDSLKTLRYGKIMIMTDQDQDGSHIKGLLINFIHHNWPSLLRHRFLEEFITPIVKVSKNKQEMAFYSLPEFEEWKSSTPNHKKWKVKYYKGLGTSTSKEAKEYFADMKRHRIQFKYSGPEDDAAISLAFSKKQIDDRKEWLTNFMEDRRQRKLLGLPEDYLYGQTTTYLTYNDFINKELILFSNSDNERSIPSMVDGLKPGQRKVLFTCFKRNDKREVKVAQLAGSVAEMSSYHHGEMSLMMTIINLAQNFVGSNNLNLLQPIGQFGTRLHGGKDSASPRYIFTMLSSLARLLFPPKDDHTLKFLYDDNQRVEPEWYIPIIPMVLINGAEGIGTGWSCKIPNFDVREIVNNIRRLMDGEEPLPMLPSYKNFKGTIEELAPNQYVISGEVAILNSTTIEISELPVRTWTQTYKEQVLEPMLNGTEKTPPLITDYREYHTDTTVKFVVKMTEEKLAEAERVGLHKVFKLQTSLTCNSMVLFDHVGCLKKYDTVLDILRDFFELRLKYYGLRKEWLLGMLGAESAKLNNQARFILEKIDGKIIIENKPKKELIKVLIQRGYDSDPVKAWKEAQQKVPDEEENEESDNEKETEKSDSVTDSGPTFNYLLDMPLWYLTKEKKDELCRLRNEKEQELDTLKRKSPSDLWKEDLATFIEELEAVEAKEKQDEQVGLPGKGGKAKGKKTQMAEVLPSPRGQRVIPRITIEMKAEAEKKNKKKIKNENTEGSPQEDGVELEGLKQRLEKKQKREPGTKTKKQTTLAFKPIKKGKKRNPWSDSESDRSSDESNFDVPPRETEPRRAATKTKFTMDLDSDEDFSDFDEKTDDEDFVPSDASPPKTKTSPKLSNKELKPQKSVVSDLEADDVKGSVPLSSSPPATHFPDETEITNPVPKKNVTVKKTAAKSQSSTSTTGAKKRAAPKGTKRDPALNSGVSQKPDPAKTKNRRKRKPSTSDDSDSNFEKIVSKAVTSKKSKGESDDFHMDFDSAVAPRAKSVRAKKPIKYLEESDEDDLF

[16] = target: human DNA topoisomerase I (Homo sapiens (Human), UniProt P11387); experiment: Human DNA topoisomerase I inhibition; assay type: biochemical; details: gallates at 100 µM
Sequence of human DNA topoisomerase I (P11387 whole entry): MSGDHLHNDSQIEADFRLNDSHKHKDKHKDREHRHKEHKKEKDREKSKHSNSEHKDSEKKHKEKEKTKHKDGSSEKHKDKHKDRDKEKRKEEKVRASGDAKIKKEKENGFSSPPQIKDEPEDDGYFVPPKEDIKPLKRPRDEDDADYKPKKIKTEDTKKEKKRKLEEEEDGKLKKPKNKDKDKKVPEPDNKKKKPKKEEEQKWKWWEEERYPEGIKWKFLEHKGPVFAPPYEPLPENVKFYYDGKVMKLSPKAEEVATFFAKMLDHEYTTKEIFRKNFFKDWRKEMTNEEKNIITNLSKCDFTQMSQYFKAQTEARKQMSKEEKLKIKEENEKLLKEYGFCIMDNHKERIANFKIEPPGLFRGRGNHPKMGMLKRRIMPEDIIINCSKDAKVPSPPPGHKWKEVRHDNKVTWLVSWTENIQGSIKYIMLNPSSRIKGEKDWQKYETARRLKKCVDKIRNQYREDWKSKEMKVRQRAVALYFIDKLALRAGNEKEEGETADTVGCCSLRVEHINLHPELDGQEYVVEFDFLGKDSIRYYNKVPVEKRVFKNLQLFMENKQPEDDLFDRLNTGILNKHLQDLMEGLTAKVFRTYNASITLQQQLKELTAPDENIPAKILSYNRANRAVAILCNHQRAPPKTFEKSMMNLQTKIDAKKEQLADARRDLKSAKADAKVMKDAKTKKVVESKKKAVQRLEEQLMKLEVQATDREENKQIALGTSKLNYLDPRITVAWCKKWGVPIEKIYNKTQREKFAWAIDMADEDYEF

Q: What does the source list for biphenyl gallate?
A: MIC E. coli imp (E. coli imp [1]; Table 7): 36.43 µg/mL; MIC E. coli imp BAS3023 (E. coli imp [1]; Table 9): 200 µM; MIC B. subtilis ATCC 6633 (B. subtilis (ATCC 6633)): 16 µg/mL and 50-100 µM; MIC S. aureus ATCC 14775 (S. aureus (ATCC 14775)): 16 µg/mL and 50 µM; MIC MRSA ATCC 33591 (MRSA): 50 µM; MIC S. aureus (MRSA) ATCC BAA44 (MRSA): 16 µg/mL; MIC E coli ATCC 25922 (E. coli (ATCC 25922)): >200 µM; MIC E. coli ATCC 25922 (E. coli (ATCC 25922)): 517.29 µg/mL

Q: With C[n+]1c(-c2ccc(C=NNC(=O)c3ccc(C(=O)NN=Cc4ccc(-c5cn6ccccc6[n+]5C)cc4)cc3)cc2)cn2ccccc21 [Compound 229] as the molecule, how does the MIC (M. abscessus) read?
A: The MIC was 10.1 µM.

Q: What about the “E. coli DNA gyrase-mediated DNA breaks and nicking” value (E. coli DNA gyrase [2]) of the same molecule?
A: The value was “enhances the E. coli gyrase-mediated DNA nicking; also recorded: induces DNA nicking”.

Q: And the IC50 (in vitro [3])?
A: The IC50 was greater than 200 µM.

Q: What about the “inhibition of E. coli DNA gyrase activities” value (E. coli DNA gyrase [4]; 50 µM of compounds) of the same molecule?
A: The value was “completely inhibited”.

Q: And the “inhibition of E. coli DNA gyrase activities” value (E. coli DNA gyrase [4]; 200 µM of compounds)?
A: The value was “completely inhibited”.

Q: And the IC50 (E. coli DNA gyrase [4])?
A: The IC50 was 16 µM.

Q: And the “Mtb gyrase-mediated DNA nicking and double-stranded breaks” value (Mtb gyrase)?
A: The value was “significantly enhances the gyrase-mediated DNA nicking and double-stranded breaks”.

Q: And the survival (CDF1 mice)?
A: Its survival is 100%.

Q: What about the MIC (S. aureus (ATCC 14775); ATCC14775, read-out: MIC (µM) Sa) of the same molecule?
A: The MIC was greater than 200 µM.

Q: What about the MIC (Mtb) of the same molecule?
A: The MIC was 7.1 µM.

Q: And the “MIC (µM) Ec” value (E. coli (ATCC 25922); E. coli strain ATCC25922)?
A: Its value is 12.5 µM.

Q: And the MIC (E. coli (ATCC 25922); ATCC25922, read-out: MIC (µM) Ec, E. coli strain ATCC25922)?
A: The MIC was 6.25 to 12.5 µM.

Q: And the IC50 (in vitro [5])?
A: Its IC50 is greater than 200 µM.

Q: And the “inhibition of Mtb DNA gyrase activities” value (Mtb DNA gyrase)?
A: Its value is “potently inhibits”.

Q: What about the IC50 (Mtb DNA gyrase; Table 10, read-out: IC50 (µM) Mtb gyrase) of the same molecule?
A: The IC50 was ~2.6 µM and 2.6 µM.

Q: And the “inhibition of E. coli DNA gyrase activities” value (E. coli DNA gyrase [6])?
A: Its value is “inhibits”.

Q: What about the “cytotoxicity against the NCI panel of 60 cancer cell lines” value [7] of the same molecule?
A: The value was “no cytotoxicity”.

Q: With O=C(O)c1cc(O)c(O)c(OC(=O)c2cc(O)c(O)c(O)c2)c1 [Digallic acid, digallic acid] as the molecule, how does the IC50 [8] read?
A: The IC50 was 7.3 µM.

Q: And the “E. coli DNA gyrase-mediated DNA breaks and nicking” value (E. coli DNA gyrase [2])?
A: The value was “not bacterial DNA gyrase poisons”.

Q: What about the IC50 ([9]; IC50 Topoisomerase IV Gel-based, Table 8) of the same molecule?
A: The IC50 was 8 µM.

Q: And the IC50 ([9]; IC50 against E. coli DNA topoisomerase IV, relaxation)?
A: Its IC50 is roughly 8 µM.

Q: What about the IC50 (E. coli DNA gyrase [4]) of the same molecule?
A: Its IC50 is 2 µM.

Q: And the “inhibition of the ATPase activities of bacterial DNA topoisomerase IV” value [10]?
A: Its value is “inhibit the ATPase activities”.

Q: And the MIC (E. coli imp [11])?
A: The MIC was greater than 200 µM.

Q: What about the MIC (B. subtilis (ATCC 6633); Bacillus subtilis, ATCC6633, read-out: MIC B. subtilis ATCC 6633) of the same molecule?
A: The MIC was > 64 µg/mL and > 200 µM.

Q: What about the MIC (S. aureus (ATCC 14775); ATCC14775, read-out: MIC S. aureus ATCC 14775) of the same molecule?
A: Its MIC is 64 µg/mL and 200 µM.

Q: And the “inhibition of the ATPase activities of E. coli DNA gyrase” value (E. coli DNA gyrase [12]; AB-MECA and gallates at 100 µM)?
A: The value was “competitive inhibitor”.

Q: What about the Ki (E. coli DNA gyrase [12]; ATPase, ATP competitive, read-out: Ki) of the same molecule?
A: The Ki was 0.347 µM.

Q: And the MIC (MRSA; ATCC33591 / MRSA, read-out: MIC MRSA ATCC 33591)?
A: Its MIC is 200 µM.

Q: And the MIC (MRSA; ATCCBAA44 / MRSA, read-out: MIC S. aureus (MRSA) ATCC BAA44)?
A: Its MIC is 64 µg/mL.

Q: What about the MIC (E. coli (ATCC 25922); ATCC25922, read-out: MIC E coli ATCC 25922, Table 9) of the same molecule?
A: Its MIC is greater than 200 µM.

Q: What about the IC50 (E. coli DNA gyrase [13]) of the same molecule?
A: The IC50 was 1.9 µM.

Q: What about the “inhibition of E. coli DNA topoisomerase I” value [14] of the same molecule?
A: The value was “do not inhibit; also recorded: did not strongly inhibit”.

Q: What about the IC50 (E. coli topoisomerase IV) of the same molecule?
A: Its IC50 is roughly 4 µM.

Q: And the “inhibition of human DNA topoisomerase IIα” value [15]?
A: Its value is “do not inhibit; also recorded: did not strongly inhibit”.

Q: What about the “inhibition of human DNA topoisomerase I” value [16] of the same molecule?
A: Its value is “do not inhibit; also recorded: did not strongly inhibit”.

From patent US20230364057A1, “BACTERIAL DNA GYRASE INHIBITORS AND METHODS OF USE THEREOF” (THE FLORIDA INTERNATIONAL UNIVERSITY BOARD OF TRUSTEES, priority 2022, published 2023)
